Data on one compound can be found in US10426758B2, “Sibiriline derivatives for use for preventing and/or treating disorders associated with cellular necroptosis” (Institut National de la Sante et de la Recherche Medicale …, priority 2015, dated 2019).

SMILES strings stand for the structures.

In one assay the test system is U937 cells. The experiment in a line: Anti-necroptotic effect, U937 cells, TRAIL + zVAD, FACS of propidium iodide-stained nuclei. The assay is classed as cell-based. The protocol: (§1) L929 cells, L929AsFas cells, Jurkat FADD-deficient cells (Jurkat FADD^−/−), U937 cells are pretreated for 1 h with increased concentrations of Sib (0, 5, 10, 20 μM) and then treated respectively with TNF-α (10 ng/ml)+zVAD (20 μM), FasL (200 ng/ml)+zVAD (20 μM), TNF-α (10 ng/ml), TRAIL (200 ng/ml)+zVAD (30 μM) or TRAIL (200 ng/ml)+zVAD (30 μM)+CHX (1 μg/ml). % of cell death is determined after 24 h and calculated by a FACS analysis of Propidium Iodide-stained nuclei. In each case, the EC50 is determined as well as the % of rescue from cell death.

Another assay relates to L929 cells. The assay can be described thus: Clonogenic assay (CA). The assay is classed as cell-based. Particulars: 10 μM for 24 hours with TNF-α (10 ng/ml)/z-VAD (20 μM); 15 days of culture. The protocol:
This effect of Sibiriline on necroptosis was verified using clonogenic assay (CA). CA is an in vitro cell survival assay based on the ability of a single cell to grow into a colony.
L929 cells are treated by TNF-α (10 ng/ml)/z-VAD (20 μM) w/or w/o 10 μM Sib for 24 hours. After treatment, cells are seeded out in appropriate dilutions (here 5,000 cells per well) to form colonies in 2 weeks. Colonies are fixed with ice cold methanol and stained with crystal violet.

The subject of assay [1] is Jurkat Fadd deficient cells. The experiment in a line: Delayed treatment of Sib on TNF-induced necroptotic cell-death. The assay is classed as cell-based, human. Particulars: 10 μM added 1 h, 2 h, 3 h or 4 h after TNF-α (10 ng/ml); cell death after 24 h. The protocol: Jurkat Fadd deficient cells are treated with TNF-α (10 ng/ml) then treated with Sib (10 μM) at 1 h, 2 h, 3 h or 4 h after adding TNF-α. % of cell death is determined after 24 h and calculated by a FACS analysis of Propidium Iodide-stained nuclei. Quantitative analysis of three independent experiments with means±SD.

In assay [2] the test system is Jurkat FADD-deficient cells (Jurkat FADD−/−). The assay can be described thus: Anti-necroptotic effect, Jurkat FADD-deficient cells, TNF, FACS of propidium iodide-stained nuclei. The assay is classed as cell-based, human. On the procedure: as §1
Assay [3] relates to Jurkat FADD-deficient I 2.1 cell line. The assay can be described thus: Cell-based screening: TNF-α-induced necroptosis in Jurkat FADD-deficient cells, MTS viability assay. Also on record: species or system human. The source says:
TNF-α can induce necroptosis in Jurkat cells (human T lymphocytes) when FADD is deleted. This model was used to screen various libraries of chemical compounds for characterization of new inhibitors of cellular necroptosis. Details on this cell-based assay can be found in (Miao and Degterev, Methods Mol. Biol. 2009, 559, 79-93). The Jurkat FADD-deficient I 2.1 cell line used was purchased from ATCC and was maintained in RPMI 1640 medium (Gibco) containing Glutamax and 15% fetal calf serum (Life Technology). Necroptosis was induced by addition of 10 ng/ml of human recombinant TNF-α (Life Technology). Necrostatin-1 (Nec-1, Enzo Life Sciences) was used as model necroptosis inhibitor. Cells were maintained in 75 cm^2 flask and passed every 2 or 3 days. Chemical collections analysed were formatted in 96-well plates with 80 molecules per plates at 10 mM in 100% DMSO. For each collection plate, 2 cell plates were seeded (one necroptosis-induced with TNF-α and the other without TNF-α). Cells were seeded at 20000 cells/well, in 40 μl of medium, in a 96-well clear, flat bottom plate (CytoOne, Starlab) before treatment. Then, 40 μl of medium with or without TNF-α at 25 ng/ml were added to all wells in the corresponding plate. Immediately after TNF-α addition, 20 μl of diluted compound at 50 μM were added to the plates. Final concentration of each chemical compound was 10 μM at 0.1% DMSO. Four positives (Nec-1 at 10 μM final) and four negative (DMSO) controls were used in each plate to validate the assay. Cells were incubated at 37° C., 5% CO2 for 24 hours before performing MTS viability assay, described hereafter. Compounds were diluted before to treat cells. Liquid handling was performed using the Nimbus Microlab liquid handler (Hamilton Robotics) under microbiological safety workbench. The 10 mM compounds were diluted at 50 μM directly in cell medium.
A general note: Tetrazolium assays rely on reduction of a dye to a coloured formazan, in cell work by metabolically active cells.

The term EC50 denotes the concentration needed to bring the measured effect to its halfway point. As to `Oc1ccc(-c2cc3cccnc3[nH]2)cc1` [compound 2, 4-(1H-pyrrolo[2,3-b]pyridin-2-yl)phenol], the EC50 in the assay on U937 cells (Homo sapiens, U-937, 1 h pretreatment, cell death after 24 h) was found to be 4 µM; in assay [2] (Homo sapiens, 1 h pretreatment, cell death after 24 h), 1.2 µM; in assay [3] (Homo sapiens, Jurkat, necroptosis induced by 10 ng/ml TNF-α, 24 hours, MTS viability), 1.3 µM. The “% Rescue” value is given as 90% in the assay on U937 cells (rescue from cell death, 24 h) and 90% in assay [2] (rescue from cell death, 24 h). Further, the “cell colonies (cellular growth) after treatment” value in the assay with L929 cells is “can restore the cellular growth and protect cells from death”. In addition, the “effect on necroptotic cell-death with delayed treatment” value in assay [1] is “inhibits the necroptotic cell-death”. The “inhibition of necroptosis induced by TNF-α (figure legend)” value in assay [3] (human T lymphocyte, Jurkat FADD deficient cell line) is recorded as “dose-dependent inhibition”.
